Test results taken from patent publication US5686424A, “2-oxoethyl derivatives as immunosuppressants” (Miles Inc., priority 1995, dated 1997).
Where a name gives a salt, the structure may show the parent alone.

What was measured:
FKBP = FKBP (Homo sapiens, UniProt P62942); assay: PPIase Inhibition Assay; assay type: biochemical; conditions: concentration of inhibitor required for 50% inhibition of enzyme activity; FKBP, substrate Succinyl-Ala-Phe-Pro-Phe-para-nitroanilide; TABLE I
How it was run: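 Chymotrypsin-coupled isomerization of Succinyl-Ala-Phe-Pro-Phe-para-nitroanilide by FKBP in ice-cold 25 mM HEPES pH 7.8, 100 mM NaCl, compound in DMSO. A390 followed 90 sec; first-order rate constants give % activity remaining after subtracting uncatalyzed rate; IC50 by linear regression of V-/V+ versus concentration.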

human T-cells = assay: Suppression of Human T-Cell Proliferation Assay (PHA-stimulated, [3H]-thymidine incorporation); assay type: cell-based; conditions: concentration inhibiting [3H]-thymidine incorporation of PHA-stimulated T-cells by 50%, 72 hours; TABLE 2; read-out: IC50
How it was run: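 SRBC-rosette-purified human peripheral T-cells stimulated with PHA-M (40 μg/ml stock) and compound dilutions, in duplicate, for 72 h at 37° C. Proliferation measured by [3H]-thymidine incorporation during the final 6 h, read by liquid scintillation counting.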

NF-AT = NF-AT Inhibition Assay Directed β-Galactosidase Expression in FGL-5 cells; assay type: cell-based; conditions: 50% inhibition of NF-AT directed β-galactosidase activity in FGL-5 cells stimulated with phorbol dibutyrate and ionomycin; TABLE 3
How it was run: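 FGL-5 Jurkat cells (3 million cells/ml) carry NF-AT-site-driven lacZ. They were stimulated with phorbol dibutyrate plus ionomycin and incubated with compound 16-18 h at 37 °C, in duplicate wells with matched ethanol or DMSO vehicle controls. β-Galactosidase was read as fluorescence from 4-methylumbelliferyl-β-D-galactoside cleavage, giving percent inhibition.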

Chain of FKBP (P62942 whole entry): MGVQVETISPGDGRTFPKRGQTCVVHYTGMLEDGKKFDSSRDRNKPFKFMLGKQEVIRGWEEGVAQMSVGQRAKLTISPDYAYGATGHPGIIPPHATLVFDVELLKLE

Row | SMILES | IC50 (FKBP) [µM] | IC50 (human T-cells) [µM] | IC50 (NF-AT) [µM]
1 | COc1cc(C(=O)CN2CCCC[C@H]2C(=O)N[C@@H](C)c2ccccc2)cc(OC)c1OC [Example 150, L-Homoproline, 1-[2-(3,4,5-Trimethoxyphenyl)-2-Oxoethyl] (S)-α-methylbenzylamide Hydrochloride] | > 5 | > 15 | > 15
2 | COc1cc(C(=O)CN2CCCC[C@H]2C(=O)NCCc2ccc(S(N)(=O)=O)cc2)cc(OC)c1OC [Example 149, L-Homoproline, 1-[2-(3,4,5-Trimethoxyphenyl)-2-Oxoethyl] 2-(4-Sulfamoylphenyl)ethylamide] | > 5 | > 15 | > 15
3 | CC[C@H](C)[C@H](NC(=O)[C@@H]1CCCN1CC(=O)C1(c2ccccc2)CCCCC1)C(=O)NCc1ccccc1 [Example 116, L-Isoleucine, N-[1-(2-(1-Phenylcyclohexyl)-2-Oxoethyl)-L-Prolyl] Benzylamide] | < 5 | 6 | 14
4 | CC[C@H](C)[C@H](NC(=O)[C@@H]1CCCN1CC(=O)C12CC3CC(CC(C3)C1)C2)C(=O)NCc1ccc(OC)cc1 [Example 69, L-Isoleucine, N-[1-(2-Adamantan-1-yl-2-Oxoethyl)-L-Prolyl] 4-methoxybenzylamide] | 0.2 | 8 | 16
5 | COc1cc(C(=O)CN2CCC[C@H]2C(=O)NC(C)CCc2ccccc2)cc(OC)c1OC (stereo partly drawn) [Example 138, L-Proline, 1-[2-(3,4,5-Trimethoxyphenyl)-2-Oxoethyl] 1-methyl-3-phenylpropylamide Hydrochloride] | > 5 | 18 | > 33
6 | CC[C@H](C)[C@H](NC(=O)[C@@H]1CCCN1CC(=O)OC1(C)C2CC3CC(C2)CC1C3)C(=O)NCc1ccccc1 (stereo partly drawn) [Example 89, L-Isoleucine, N-[1-(2-(2-Oxy-2-Methyladamant-2-yl)-2-Oxoethyl)-L-Prolyl] Benzylamide] | 0.12 | 8 | 5
7 | CCC[C@H](NC(=O)[C@@H]1CCCN1CC(=O)C12CC3CC(CC(C3)C1)C2)C(=O)NCc1ccccc1 [Example 59, L-Norvaline, N-[1-(2-Adamantan-1-yl-2-Oxoethyl)-L-Prolyl] Benzylamide] | 0.71 | 10 | > 100
8 | CC[C@H](C)[C@H](NC(=O)[C@@H]1CCCN1CC(=O)c1cc(OC)c(OC)cc1OC)C(=O)NCc1ccccc1 [Example 117, L-Isoleucine, N-[1-(2-(2,4,5-Trimethoxyphenyl)-2-Oxoethyl)-L-Prolyl] Benzylamide] | < 5 | > 15 | > 15
9 | C=CCOC(=O)Nc1ccc(CCNC(=O)[C@@H]2CCCN2CC(=O)c2cc(OC)c(OC)c(OC)c2)cc1 [Example 156, L-Proline, 1-[2-(3,4,5-Trimethoxyphenyl)-2-Oxoethyl] 2-(4-(N-carboalloxy)aminophenyl)ethylamide] | > 5 | 6 | > 15
10 | CC[C@H](C)[C@H](NC(=O)[C@@H]1CCCN1CC(=O)C12CC3CC(CC(C3)C1)C2)C(=O)NCc1ccccc1OC [Example 70, L-Isoleucine, N-[1-(2-Adamantan-1-yl-2-Oxoethyl)-L-Prolyl] 2-methoxybenzylamide] | 0.64 | 7 | 16
11 | CC[C@H](C)[C@H](NC(=O)[C@@H]1CCCN1CC(=O)OCC=Cc1ccccc1)C(=O)NCc1ccccc1 [Example 84, L-Isoleucine, N-[1-(2-(3-Phenyl-2-Propen-1-Oxy)-2-Oxoethyl)-L-Prolyl] Benzylamide] | 3.2 | > 100 | > 100
12 | CC[C@H](C)[C@H](NC(=O)[C@@H]1CCCN1CC(=O)C1CC2CCC1C2)C(=O)NCc1ccccc1 (stereo partly drawn) [Example 97] | < 5 | 12 | 32
13 | CCCCCC1CCC(C(=O)CN2CCC[C@H]2C(=O)N[C@H](C(=O)NCc2ccccc2)[C@@H](C)CC)CC1 (stereo partly drawn) [Example 42, L-Isoleuclne, N-[1-(2-(4-Pentylcyclohexyl)-2-Oxoethyl)-L-Prolyl] Benzylamide] | > 5 | 7 | 22
14 | COc1cc(C(=O)CN2CCC[C@H]2C(=O)NCCc2ccc(N)cc2)cc(OC)c1OC [Example 125, L-Proline, 1-[2-(3,4,5-Trimethoxyphenyl)-2-Oxoethyl] 2-(4-aminophenyl)ethylamide Dihydrochloride] | > 5 | > 15 | > 15
15 | O=C(NCc1ccccc1)[C@H](Cc1ccccc1)NC(=O)[C@@H]1CCCN1CC(=O)C12CC3CC(CC(C3)C1)C2 [Example 58, L-Phenylalanine, N-[1-(2-Adamantan-1-yl-2-Oxoethyl)-L-Prolyl] Benzylamide] | 2.3 | 7 | 20
16 | CC[C@H](C)[C@H](NC(=O)[C@@H]1CCCN1CC(=O)c1ccc(OCCOc2ccccc2)cc1)C(=O)NCc1ccccc1 [Example 108, L-Isoleucine, N-[1-{2-Oxo-2-[4-(2-Phenoxyethoxy)-Phenyl]-Ethyl}-L-Prolyl] Benzylamide] | < 5 | > 15 | > 15
17 | CC[C@H](C)[C@H](NC(=O)[C@@H]1CCCN1CC(=O)c1cc2ccccc2o1)C(=O)NCc1ccccc1 [Example 100, L-Isoleucine, N-[1-(2-(Benzofuran-2-yl)-2-Oxoethyl)-L-Prolyl] Benzylamide Hydrochloride Salt] | > 5 | > 15 | > 15
18 | COc1cc(C(=O)CN2CCC[C@H]2C(=O)N2CCC(c3ccccc3)CC2)cc(OC)c1OC [Example 131, L-Proline, 1-[2-(3,4,5-Trimethoxyphenyl)-2-Oxoethyl] 4-Phenylpiperldenylamide] | > 5 | 22 | > 33
19 | CC[C@H](C)[C@H](NC(=O)[C@@H]1CCCN1CC(=O)c1ccccc1Oc1ccccc1)C(=O)NCc1ccccc1 [Example 105, L-Isoleucine, N-[1-(2-(2-Phenoxyphenyl)-2-Oxoethyl)-L-Prolyl] Benzylamide] | < 5 | > 15 | > 15
20 | COc1cc(C(=O)CN2CCCC[C@H]2C(=O)NCc2ccccc2)cc(OC)c1OC [Example 146, L-Homoproline, 1-[2-(3,4,5-Trimethoxyphenyl)-2-Oxoethyl] Benzylamide Hydrochloride] | > 5 | > 15 | > 15
21 | CC[C@H](C)[C@H](NC(=O)[C@@H]1CCCN1CC(=O)NCC12CC3CC(CC(C3)C1)C2)C(=O)NCc1ccccc1 [Example 91, L-Isoleucine, N-[1-(Adamant-1-ylmethylcarbamoylmethyl)-L-Prolyl] Benzylamide] | < 5 | 4 | 26
22 | COc1ccc(CNC(=O)[C@@H]2CCCN2CC(=O)c2cc(OC)c(OC)c(OC)c2)cc1 [Example 132, L-Proline, 1-[2-(3,4,5-Trimethoxyphenyl)-2-Oxoethyl] 4-Methoxybenzamide Hydrochloride] | > 5 | 24 | > 33
23 | COc1cc(C(=O)CN2CCC[C@H]2C(=O)NCCc2ccc(NC(=O)c3ccccc3)cc2)cc(OC)c1OC [Example 155, L-Proline, 1-[2-(3,4,5-Trimethoxyphenyl)-2-Oxoethyl] 2-(4-(N-Benzoyl)aminophenyl)ethylamide] | > 5 | 9 | > 15
